Source: US20200229435A1, “ANTIMICROBIAL MIXTURE CONTAINING 4-(3-ETHOXY-4-HYDROXYPHENYL)BUTAN-2-ONE AND AN AMMONIUM COMPOUND, AND COSMETIC COMPOSITION CONTAINING SAME” (L'OREAL, priority 2017, published 2020)

Assays:
Assay type in all cases: cell-based
[1] = tested on: Candida albicans ATCC 10231; experiment: MIC / synergy (FIC index) microplate growth test, optical density at 620 nm, Candida albicans
Source text: (§1) FIC Index=(MICa with B/MICa)+(MICb with A/MICb)
(§2) with: • MICa with B: minimum concentration of product A in the combination A+B which makes it possible to obtain an inhibitory effect • MICb with A: minimum concentration of product B in the combination A+B which makes it possible to obtain the inhibitory effect. • MICa: minimum inhibitory concentration of product A alone. • MICb: minimum inhibitory concentration of product B alone.
(§3) As regards the combinations tested, MICa with b and MICb with a are the respective concentrations of A and of B in the combinations which make it possible to obtain a microbial growth percentage of less than or equal to 25%.
(§4) When the FIC index value is less than or equal to 1, it is considered that the combination of test compounds has a synergistic effect.
The microbial strain Candida albicans ATCC 10231 and a double-concentration Sabouraud broth liquid culture medium were used.
(§5) A 96-well microplate and an […] of 32.5° C. are used.
(§6) The incubation time of the microplate is: • from 24 hours to 48 hours aerobically for Aspergillus niger; • from 18 to 24 hours aerobically for Candida albicans and Pseudomonas aeruginosa.
(§7) A 10% (weight/volume) stock solution was prepared by mixing 1 g of compound in 9 ml of aqueous 1% agar solution. Successive dilutions were made with the 1% agar solution. • Tests of compounds A and B alone
(§8) 50 μL of each of the daughter solutions obtained containing compound A or B are added to the microplate wells. 100 μL of Sabouraud liquid nutrient broth seeded with the strain Aspergillus niger and 50 μL of aqueous 1% agar solution are also added thereto. • Tests of compounds A and B as a mixture
(§9) 50 μL of each of the daughter solutions obtained containing compound A and 50 μL of each of the daughter solutions obtained containing compound B are added to the microplate wells. 100 μL of Sabouraud liquid nutrient broth seeded at double concentration with the strain Aspergillus niger are also added thereto.
(§10) A positive microbial growth control was also prepared. The positive microbial growth control corresponds to a mixture of 100 μL of aqueous 1% agar solution with 100 μL of Sabouraud liquid nutrient broth seeded at double concentration with the strain Aspergillus niger in the absence of compounds A and B.
(§11) An absorbance control was performed in parallel on compounds A and B alone. This control corresponds to 100 μL of double concentration sterile Sabouraud liquid nutrient broth+100 μL of double concentration compound A or B.
(§12) The test as described above (tests, absorbance control and growth control) was performed again to test the combination A+B on the strains Candida albicans and Pseudomonas aeruginosa.

[2] = tested on: Aspergillus niger ATCC 6275; experiment: MIC / synergy (FIC index) microplate growth test, optical density at 620 nm, Aspergillus niger
Source text: as §1, §2, §3, §4
The microbial strain Aspergillus niger ATCC 6275, and a double-concentration Sabouraud broth liquid culture medium supplemented with polyoxyethylenated (20 OE) sorbitan monopalmitate (Tween 40 from Croda) and Phytagel© BioReagent were used.
as §5, §6, §7, §8, §9, §10, §11
In the two cases (test and control), the inoculum represents the concentration of the strain Aspergillus niger present in the final volume of the wells (200 μL) and is between 2 and 6×10^5 cfu/ml of Aspergillus niger.

[3] = tested on: Pseudomonas aeruginosa ATCC 9027; experiment: MIC / synergy (FIC index) microplate growth test, optical density at 620 nm, Pseudomonas aeruginosa
Source text: as §1, §2, §3, §4
The microbial strain Pseudomonas aeruginosa ATCC 9027 and a double-concentration nutritive broth liquid culture medium were used.
as §5, §6, §7, §8, §9, §10, §11, §12

[4] = weight %, first concentration giving growth <= 25%

For CCOc1cc(CCC(C)=O)ccc1O [A, 4-(3-ethoxy-4-hydroxyphenyl)butan-2-one], the microbial growth percentage ([1]; A 0.025 weight % alone) was 73%, the microbial growth percentage ([1]; A 0.05 weight % alone) was 73% and the microbial growth percentage ([1]; A 0.1 weight % alone) was 49%. The microbial growth percentage ([1]; A 0.2 weight % alone) was 9%, the “% MIC of A alone” value [1, 4] was 0.2% and the microbial growth percentage ([2]; Example 1, A 0.025 weight % alone) was 150%. The microbial growth percentage ([2]; Example 1, A 0.05 weight % alone) was 113%, the microbial growth percentage ([2]; Example 1, A 0.1 weight % alone) was 112% and the microbial growth percentage ([2]; Example 1, A 0.2 weight % alone) was 75%. For the same molecule, the microbial growth percentage ([2]; Example 1, A 0.4 weight % alone) was 5%, the “% MIC of A alone” value ([2]; Example 1, weight %, first concentration giving growth <= 25%) was 0.4% and the microbial growth percentage ([2]; Example 2, A 0.025 weight % alone) was 212%. For the same molecule, the microbial growth percentage ([2]; Example 2, A 0.05 weight % alone) was 92%, the microbial growth percentage ([2]; Example 2, A 0.1 weight % alone) was 68% and the microbial growth percentage ([2]; Example 2, A 0.2 weight % alone) was 29%. The microbial growth percentage ([2]; Example 2, A 0.4 weight % alone) was 17%, the “% MIC of A alone” value ([2]; Example 2, weight %, first concentration giving growth <= 25%) was 0.4% and the microbial growth percentage ([3]; A 0.0625 weight % alone) was 114%. It also gave a microbial growth percentage ([3]; A 0.125 weight % alone) of 59%, a microbial growth percentage ([3]; A 0.25 weight % alone) of 65% and a microbial growth percentage ([3]; A 0.5 weight % alone) of 41%. For the same molecule, the microbial growth percentage ([3]; A 1 weight % alone) was 15% and the “% MIC of A alone” value [3, 4] was 1%.
In the case of CCCCCCCCCCCCCCCCCCCCCC[N+](C)(C)C.[Cl-] [B1, behenyltrimethylammonium chloride], the microbial growth percentage ([1]; B1 0.002 weight % alone) is reported as 50%, the microbial growth percentage ([1]; B1 0.00395 weight % alone) is reported as 1% and the “% MIC of B1 alone” value [1, 4] is reported as 0.00395%. For the same molecule, the microbial growth percentage ([2]; B1 0.049 weight % alone) was 186%, the microbial growth percentage ([2]; B1 0.1 weight % alone) was 155% and the microbial growth percentage ([2]; B1 0.2 weight % alone) was 78%. The microbial growth percentage ([2]; B1 0.4 weight % alone) was 34%, the microbial growth percentage ([2]; B1 0.79 weight % alone) was 8% and the “% MIC of B1 alone” value [2, 4] was 0.79%. It also gave a microbial growth percentage ([3]; B1 0.001975 weight % alone) of 68%, a microbial growth percentage ([3]; B1 0.00395 weight % alone) of 93% and a microbial growth percentage ([3]; B1 0.0079 weight % alone) of 36%. The microbial growth percentage ([3]; B1 0.0158 weight % alone) was 30%, the microbial growth percentage ([3]; B1 0.0316 weight % alone) was 1% and the “% MIC of B1 alone” value [3, 4] was 0.0316%.
